# In patent US20100215579A1, “PHEN-NAPHTHALENE AND PHEN-QUINOLINE DERIVATIVES AND THEIR USE FOR BINDING AND IMAGING AMYLOID PLAQUES” (The Trustees of the University of Pennsylvania, priority 2007, published 2010):
# What was measured:
# amyloid plaques = molecular target: T1, amyloid plaques (Homo sapiens, UniProt P05067); test: Ki values of Phen-Nap, Nap-Phen derivatives (Ki binding data)
# T1 construct: fibrillary Aβ plaques consisting predominately of aggregates of Aβ40 and Aβ42 peptides
# [1] = Biodistribution in ICR mice after an iv injection; format: in vivo
# Excerpt: Biodistribution in ICR Mice After an iv Injection of [^18F][4-(6-{2-[2-(2-Fluoro-ethoxy)-ethoxy]-ethoxy}-naphthalen-2-yl)-phenyl]-methyl-amine in 1% EtOH/0.1% BSA in Water
# (% dose/organ, avg of 3 mice±SD)
# (% dose/g, avg of 3 mice±SD)
# Biodistribution in ICR Mice After an iv Injection of [^18F]19a in 3% EtOH/0.1% BSA in Water
# Biodistribution in ICR Mice After an iv Injection of [^18F]34a in 5% EtOH/0.1% BSA in Water
# Biodistribution in ICR Mice After an iv Injection of [^18F]32a in 1% EtOH/0.1% BSA in Water
# [2] = Blood, 2 min after iv injection
# [3] = Blood, 30 min after iv injection
# [4] = Bone, 30 min after iv injection
# [5] = Brain, 2 min after iv injection
# [6] = Brain, 30 min after iv injection
# [7] = Heart, 2 min after iv injection
# [8] = Heart, 30 min after iv injection
# [9] = Kidney, 2 min after iv injection
# [10] = Kidney, 30 min after iv injection
# [11] = Kidney, 1 hr after iv injection
# [12] = Kidney, 2 hr after iv injection
# [13] = Liver, 2 min after iv injection
# [14] = Liver, 30 min after iv injection
# [15] = Lung, 30 min after iv injection
# [16] = Muscle, 2 min after iv injection
# [17] = Muscle, 30 min after iv injection
# [18] = Muscle, 1 hr after iv injection
# [19] = Muscle, 2 hr after iv injection
# [20] = Skin, 30 min after iv injection
# [21] = Spleen, 2 min after iv injection
# [22] = Spleen, 30 min after iv injection
# [23] = Spleen, 1 hr after iv injection
# [24] = Spleen, 2 hr after iv injection
# T1 sequence (P05067 672-713 limits assumed): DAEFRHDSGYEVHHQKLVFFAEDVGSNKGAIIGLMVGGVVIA
# T1 sequence (P05067 672-711 limits assumed): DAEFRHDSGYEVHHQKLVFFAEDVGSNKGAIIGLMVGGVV
compound,measurement,setting,value
"Nc1ccc(-c2ccc3cc(OCCOCCOCCF)ccc3c2)cc1 [Compound 11a, 4-(6-(2-(2-(2-fluoroethoxy)ethoxy)ethoxy)naphthalen-2-yl)benzenamine]",Ki,amyloid plaques,12.5 ± 1.2 nM
"CN(C)c1ccc(-c2ccc3cc(OCCOCCOCCF)ccc3c2)cc1 [Compound 12a, 4-(6-(2-(2-(2-fluoroethoxy)ethoxy)ethoxy)naphthalen-2-yl)-N,N-dimethylbenzenamine]",Ki,amyloid plaques,3.1 nM
"Oc1ccc(-c2ccc3cc(OCCOCCOCCF)ccc3c2)cc1 [Compound 26, 4-(6-(2-(2-(2-fluoroethoxy)ethoxy)ethoxy)naphthalen-2-yl)phenol]",Ki,amyloid plaques,16.5 nM
"Nc1ccc(-c2ccc3cc(OCCOCCOCCO)ccc3c2)cc1 [Compound 11b, 2-(2-(2-(6-(4-aminophenyl)naphthalen-2-yloxy)ethoxy)ethoxy)ethanol]",Ki,amyloid plaques,22 nM
"CNc1ccc2cc(-c3ccc(OCCOCCOCCO)cc3)ccc2c1 [Compound 19b, 2-(2-(2-(4-(6-(methylamino)naphthalen-2-yl)phenoxy)ethoxy)ethoxy)ethanol]",Ki,amyloid plaques,6 nM
"CNc1ccc(-c2ccc3nc(OCCOCCOCCF)ccc3c2)cc1 [Compound 34a, 4-(2-(2-(2-(2-fluoroethoxy)ethoxy)ethoxy)quinolin-6-yl)-N-methylbenzenamine]",Ki,amyloid plaques,5.5 nM
CNc1ccc(-c2ccc3cc(OCCOCCOCCF)ccc3c2)cc1 [[^18F][4-(6-{2-[2-(2-Fluoro-ethoxy)-ethoxy]-ethoxy}-naphthalen-2-yl)-phenyl]-methyl-amine],% dose/g,[1]; [2],2.08 ± 0.20 % dose/g
same,% dose/organ,[1]; [2],3.50 ± 0.18 % dose/organ
same,% dose/g,[1]; [3],1.72 ± 0.29 % dose/g
same,% dose/organ,[1]; [3],2.99 ± 0.48 % dose/organ
same,% dose/g,"[1]; Blood, 1 hr after iv injection",1.41 ± 0.33 % dose/g
same,% dose/organ,"[1]; Blood, 1 hr after iv injection",2.73 ± 0.41 % dose/organ
same,% dose/g,"[1]; Blood, 2 hr after iv injection",2.22 ± 0.37 % dose/g
same,% dose/organ,"[1]; Blood, 2 hr after iv injection",3.59 ± 0.53 % dose/organ
same,% dose/g,"[1]; Bone, 2 min after iv injection",2.14 ± 0.82 % dose/g
same,% dose/organ,"[1]; Bone, 2 min after iv injection",7.38 ± 3.40 % dose/organ
same,% dose/g,[1]; [4],0.97 ± 0.03 % dose/g
same,% dose/organ,[1]; [4],3.36 ± 0.09 % dose/organ
same,% dose/g,"[1]; Bone, 1 hr after iv injection",1.19 ± 0.21 % dose/g
same,% dose/organ,"[1]; Bone, 1 hr after iv injection",4.61 ± 0.36 % dose/organ
same,% dose/g,"[1]; Bone, 2 hr after iv injection",2.18 ± 0.19 % dose/g
same,% dose/organ,"[1]; Bone, 2 hr after iv injection",7.07 ± 0.57 % dose/organ
same,% dose/g,[1]; [5],7.26 ± 1.28 % dose/g
same,% dose/organ,[1]; [5],3.43 ± 0.51 % dose/organ
same,% dose/g,[1]; [6],2.15 ± 0.25 % dose/g
same,% dose/organ,[1]; [6],0.95 ± 0.08 % dose/organ
same,% dose/g,"[1]; Brain, 1 hr after iv injection",1.58 ± 0.18 % dose/g
same,% dose/organ,"[1]; Brain, 1 hr after iv injection",0.75 ± 0.06 % dose/organ
same,% dose/g,"[1]; Brain, 2 hr after iv injection",1.91 ± 0.12 % dose/g
same,% dose/organ,"[1]; Brain, 2 hr after iv injection",0.88 ± 0.06 % dose/organ
same,% dose/g,[1]; [7],5.44 ± 0.25 % dose/g
same,% dose/organ,[1]; [7],0.63 ± 0.08 % dose/organ
same,% dose/g,[1]; [8],2.04 ± 0.30 % dose/g
same,% dose/organ,[1]; [8],0.23 ± 0.02 % dose/organ
same,% dose/g,"[1]; Heart, 1 hr after iv injection",1.46 ± 0.24 % dose/g
same,% dose/organ,"[1]; Heart, 1 hr after iv injection",0.18 ± 0.01 % dose/organ
same,% dose/g,"[1]; Heart, 2 hr after iv injection",1.79 ± 0.19 % dose/g
same,% dose/organ,"[1]; Heart, 2 hr after iv injection",0.19 ± 0.03 % dose/organ
same,% dose/g,[1]; [9],8.88 ± 1.80 % dose/g
same,% dose/organ,[1]; [9],3.27 ± 0.60 % dose/organ
same,% dose/g,[1]; [10],3.98 ± 0.64 % dose/g
same,% dose/organ,[1]; [10],1.45 ± 0.12 % dose/organ
same,% dose/g,[1]; [11],2.75 ± 0.35 % dose/g
same,% dose/organ,[1]; [11],1.05 ± 0.25 % dose/organ
same,% dose/g,[1]; [12],2.52 ± 0.18 % dose/g
same,% dose/organ,[1]; [12],0.88 ± 0.10 % dose/organ
same,% dose/g,[1]; [13],19.7 ± 3.24 % dose/g
same,% dose/organ,[1]; [13],26.5 ± 2.18 % dose/organ
same,% dose/g,[1]; [14],13.4 ± 1.30 % dose/g
same,% dose/organ,[1]; [14],17.1 ± 1.54 % dose/organ
same,% dose/g,"[1]; Liver, 1 hr after iv injection",9.46 ± 1.50 % dose/g
same,% dose/organ,"[1]; Liver, 1 hr after iv injection",16.3 ± 1.39 % dose/organ
same,% dose/g,"[1]; Liver, 2 hr after iv injection",11.9 ± 1.87 % dose/g
same,% dose/organ,"[1]; Liver, 2 hr after iv injection",13.5 ± 1.77 % dose/organ
same,% dose/g,"[1]; Lung, 2 min after iv injection",5.73 ± 0.19 % dose/g
same,% dose/organ,"[1]; Lung, 2 min after iv injection",1.08 ± 0.05 % dose/organ
same,% dose/g,[1]; [15],2.78 ± 0.30 % dose/g
same,% dose/organ,[1]; [15],0.53 ± 0.10 % dose/organ
same,% dose/g,"[1]; Lung, 1 hr after iv injection",1.99 ± 0.26 % dose/g
same,% dose/organ,"[1]; Lung, 1 hr after iv injection",0.41 ± 0.05 % dose/organ
same,% dose/g,"[1]; Lung, 2 hr after iv injection",2.44 ± 0.37 % dose/g
same,% dose/organ,"[1]; Lung, 2 hr after iv injection",0.48 ± 0.16 % dose/organ
same,% dose/g,[1]; [16],1.21 ± 0.98 % dose/g
same,% dose/organ,[1]; [16],11.8 ± 9.69 % dose/organ
same,% dose/g,[1]; [17],1.27 ± 0.06 % dose/g
same,% dose/organ,[1]; [17],12.7 ± 0.64 % dose/organ
same,% dose/g,[1]; [18],0.92 ± 0.09 % dose/g
same,% dose/organ,[1]; [18],10.3 ± 0.54 % dose/organ
same,% dose/g,[1]; [19],0.97 ± 0.06 % dose/g
same,% dose/organ,[1]; [19],9.00 ± 0.56 % dose/organ
same,% dose/g,"[1]; Skin, 2 min after iv injection",1.01 ± 0.16 % dose/g
same,% dose/organ,"[1]; Skin, 2 min after iv injection",3.66 ± 0.74 % dose/organ
same,% dose/g,[1]; [20],1.90 ± 0.08 % dose/g
same,% dose/organ,[1]; [20],7.08 ± 0.26 % dose/organ
same,% dose/g,"[1]; Skin, 1 hr after iv injection",1.56 ± 0.18 % dose/g
same,% dose/organ,"[1]; Skin, 1 hr after iv injection",6.53 ± 0.12 % dose/organ
same,% dose/g,"[1]; Skin, 2 hr after iv injection",1.32 ± 0.09 % dose/g
same,% dose/organ,"[1]; Skin, 2 hr after iv injection",4.60 ± 0.29 % dose/organ
same,% dose/g,[1]; [21],5.11 ± 0.49 % dose/g
same,% dose/organ,[1]; [21],0.47 ± 0.03 % dose/organ
same,% dose/g,[1]; [22],2.12 ± 0.33 % dose/g
same,% dose/organ,[1]; [22],0.23 ± 0.01 % dose/organ
same,% dose/g,[1]; [23],1.81 ± 0.17 % dose/g
same,% dose/organ,[1]; [23],0.23 ± 0.02 % dose/organ
same,% dose/g,[1]; [24],2.08 ± 0.44 % dose/g
same,% dose/organ,[1]; [24],0.19 ± 0.03 % dose/organ
"COc1ccc(-c2ccc3cc(O)ccc3c2)cc1 [Compound 25, 6-(4-methoxyphenyl)naphthalen-2-ol]",Ki,amyloid plaques,1.5 nM
"CN(C)c1ccc(-c2ccc3nc(OCCOCCOCCO)ccc3c2)cc1 [Compound 32b, 2-(2-(2-(6-(4-(dimethylamino)phenyl)quinolin-2-yloxy)ethoxy)ethoxy)ethanol]",Ki,amyloid plaques,4.7 nM
"CNc1ccc2cc(-c3ccc(OCCOCCOCCF)cc3)ccc2c1 [Compound 19a, 6-(4-(2-(2-(2-fluoroethoxy)ethoxy)ethoxy)phenyl)-N-methylnaphthalen-2-amine]",Ki,amyloid plaques,3 nM
"COc1ccc(-c2ccc3cc(N(C)C)ccc3c2)cc1 [Compound 23, 6-(4-methoxyphenyl)-N,N-dimethylnaphthalen-2-amine]",Ki,amyloid plaques,1.4 nM
"Nc1ccc(-c2ccc3nc(OCCOCCOCCF)ccc3c2)cc1 [Compound 33a, 4-(2-(2-(2-(2-fluoroethoxy)ethoxy)ethoxy)quinolin-6-yl)benzenamine]",Ki,amyloid plaques,102 ± 32 nM
"CN(C)c1ccc(-c2ccc3nc(OCCOCCOCCF)ccc3c2)cc1 [Compound 32a, 4-(2-(2-(2-(2-fluoroethoxy)ethoxy)ethoxy)quinolin-6-yl)-N,N-dimethylbenzenamine]",Ki,amyloid plaques,4.4 nM
"Nc1ccc2cc(-c3ccc(O)cc3)ccc2c1 [Compound 16, 4-(6-aminonaphthalen-2-yl)phenol]",Ki,amyloid plaques,33.5 ± 11 nM
"CN(C)c1ccc2cc(-c3ccc(OCCOCCOCCF)cc3)ccc2c1 [Compound 18a, 6-(4-(2-(2-(2-fluoroethoxy)ethoxy)ethoxy)phenyl)-N,N-dimethylnaphthalen-2-amine]",Ki,amyloid plaques,5.6 nM
"CNc1ccc(-c2ccc3cc(OCCOCCOCCO)ccc3c2)cc1 [Compound 13b, 2-(2-(2-(6-(4-(methylamino)phenyl)naphthalen-2-yloxy)ethoxy)ethoxy)ethanol]",Ki,amyloid plaques,1 nM
"Nc1ccc2cc(-c3ccc(OCCOCCOCCF)cc3)ccc2c1 [Compound 17a, 6-(4-(2-(2-(2-fluoroethoxy)ethoxy)ethoxy)phenyl)naphthalen-2-amine]",Ki,amyloid plaques,20 ± 5 nM
"CNc1ccc(-c2ccc3nc(OCCOCCOCCO)ccc3c2)cc1 [Compound 34b, 2-(2-(2-(6-(4-(methylamino)phenyl)quinolin-2-yloxy)ethoxy)ethoxy)ethanol]",Ki,amyloid plaques,5 nM
"Nc1ccc2cc(-c3ccc(OCCOCCOCCO)cc3)ccc2c1 [Compound 17b, 2-(2-(2-(4-(6-aminonaphthalen-2-yl)phenoxy)ethoxy)ethoxy)ethanol]",Ki,amyloid plaques,27 nM
